The values that follow come from patent publication US20250250252A1, “PIPERIDINYLBENZONITRILE DERIVATIVES AS INHIBITORS OF GLUTAMINYL-PEPTIDE CYCLOTRANSFERASE AND GLUTAMINYL-PEPTIDE CYCLOTRANSFERASE LIKE PROTEIN” (Boehringer Ingelheim International GmbH, priority 2024, published 2025).

The nature of data set [1]: Assay C: Permeability in CACO-2 cells. The data set is classed as in vitro ADME. As to conditions: human; for efflux ratio: Caco-2, pH 7.2. The procedure: (§1) Caco-2 cells (1-2×10^5 cells/1 cm^2 area) are seeded on filter inserts (Costar transwell polycarbonate or PET filters, 0.4 μm pore size) and cultured (DMEM) for 10 to 25 days. Compounds are dissolved in appropriate solvent (like DMSO, 1-20 mM stock solutions). […] The transport solution (TL) is applied to the apical or basolateral donor side for measuring A-B or B-A permeability (3 filter replicates), respectively. Samples are collected at the start and end of experiment from the donor and at various time intervals for up to 2 hours also from the receiver side for concentration measurement by HPLC-MS/MS or scintillation counting. Sampled receiver volumes are replaced with fresh receiver solution.
(§2) Efflux ratio (ER)=permeability B-A/permeability A-B

The subject of data set [2] is CACO-2 cells. Description: Assay C: Permeability in CACO-2 cells. The data set is classed as in vitro ADME. Conditions: pair comparison without/with 4-fluoropiperidyl. The procedure:
as §1, §2
For orientation: Caco-2 cells form a polarised layer with tight junctions and transporters.

Data set [3] concerns CYP3A4 mRNA. Description: Assay D: CYP induction screening assay in primary human hepatocytes. Format: in vitro ADME. Conditions: 48 h. The procedure:
Cryopreserved plateable human hepatocytes (single donor, BioIVT) were thawed and plated in Collagen-I coated 96-well-plates at a cell density of 0.07 million cells per well.
After a 6 h attachment period, the seeding medium was replaced by serum-free William's medium E supplemented with Matrigel (0.25 mg/ml) and allowed to recover overnight. 24 h post-seeding, serum-free Williams E medium containing the test compound at a final concentration of 10 μM and a final DMSO content of 0.1% and 0.1% DMSO (solvents treated control), respectively, was added to predefined wells. Exposure solutions were renewed after 24 h.
After 48 h of treatment in total, the effect of the test compounds on CYP3A4 mRNA expression was assessed using the QuantiGene Plex Gene Expression Assay. Hepatocytes were lysed and total RNA was extracted using the QuantiGene Sample Processing Kit according to the instructions of the manufacturer.
mRNA quantification was conducted using a customized QuantiGene Plex Panel to analyse CYP3A4 and the housekeeper genes RPL32, EIF4E2 and GUSB according to the instructions of the manufacturer and measured on a Luminex™ instrument. Signal was reported as median fluorescence intensity (MFI), which is proportional to the number of target RNA molecules present in the sample.
For calculation of CYP3A4 mRNA induction, the signal for CYP3A4 was normalized against the geometric mean of the signal obtained for the housekeeper genes for hepatocytes exposed to test compounds in relation to solvent-treated samples according to the following equation:
n-fold induction=(MFI CYP3A4 (treated)/Xgeo MFI (RPL32,EIF4E2,GUSB))/(MFI CYP3A4 (solvent control)/Xgeo MFI (RPL32,EIF4E2,GUSB))

Data set [4] deals with SIRPα signalling induced by A549 cells. As to the kind of experiment: Assay B: SIRPα signalling assay using A549 cells. The data set is classed as cell-based. Conditions: Homo sapiens, read-out: Inhibition of SIRPα signalling induced by A549 cells: IC50. The procedure:
Two cell types are independently used: the Raji cell line (lymphoblast-like human cell line derived from B lymphocytes from a Burkitt's lymphoma patient in 1963) and A549 cells (adenocarcinomic human alveolar basal epithelial cells).
Test compounds were dissolved in 100% DMSO and serially diluted into a white 384-well microtiter cell culture plate (PerkinElmer #60076780 in case of Raji assay; PDL-coated plates Greiner #781945 in case of A549 assay). 5000 Raji cells (ATCC #CC86) or 5000 A549 cells (ATCC #CCL-185) in Assay Complete Cell Plating reagent 30 (DiscoverX 93-0563R30B) were added per well. The assay plate was incubated for 48 h at 37° C., 95% humidity and 5% CO2. 15000 reporter cells (Jurkat PathHunter SIRPαV1, DiscoverX #93-1135C19) were added to each well, and the plate was incubated for 5 h at 37° C., 95% humidity and 5% CO2. Bioassay reagent 1 of the PathHunter Bioassay detection kit (DiscoverX 93-0001) was added to each well of the plate using a multichannel pipette followed by a 15 min incubation at room temperature. Afterwards bioassay reagent 2 was added followed by 60 min incubation at room temperature (incubation in the dark).
The analysis of the data was performed using the luminescence signal generated by betagalactosidase in the PathHunter reporter cell line. The luminescence measurement was done using a Pherastar Multi-Mode Reader. Dose-response curves & IC50 data were calculated with 4-parameter sigmoidal dose response formula.

Data set [5] concerns SIRPα signalling induced by Raji cells. As to the kind of experiment: Assay B: SIRPα signalling assay using Raji cells. The data set is classed as cell-based. As to conditions: Homo sapiens, read-out: Inhibition of SIRPα signalling induced by Raji cells: IC50. The procedure: Bioassay reagent 1 of the PathHunter Bioassay detection kit (DiscoverX 93-0001) was added to each well of the plate using a multichannel pipette followed by a 15 min incubation at room temperature. Afterwards bioassay reagent 2 was added followed by 60 min incubation at room temperature (incubation in the dark).
The analysis of the data was performed using the luminescence signal generated by betagalactosidase in the PathHunter reporter cell line. The luminescence measurement was done using a Pherastar Multi-Mode Reader.

Data set [6] deals with murine hepatocytes. As to the kind of experiment: Assay E: Stability in murine hepatocytes. The data set is classed as in vitro ADME, mouse. Conditions: 1 μM. The procedure:
The metabolic degradation of the test compound is assayed in a murine hepatocyte suspension.
Murine hepatocytes (typically cryopreserved) are incubated in an appropriate buffer system (e.g. Dulbecco's modified eagle medium plus 3.5 μg glucagon/500 mL, 2.5 mg insulin/500 mL and 3.75 mg/500 mL hydrocortison) containing 5% species serum.
Following a (typically) 30 min preincubation in an incubator (37° C., 10% CO2) 5 μl of test compound solution (80 μM; from 2 mM in DMSO stock solution diluted 1:25 with medium) are added into 395 μl hepatocyte suspension (cell density in the range 0.25-5 Mio cells/mL, typically 1 Mio cells/mL; final concentration of test compound 1 μM, final DMSO concentration 0.05%).
The cells are incubated for six hours (incubator, orbital shaker) and samples (2 μl) are taken at 0, 0.5, 1, 2, 4 and 6 hours. Samples are transferred into acetonitrile and pelleted by centrifugation (5 min). The supernatant is transferred to a new 96-deepwell plate, evaporated under nitrogen and resuspended.
CLint is calculated as follows CL_[…]=Dose/AUC=(C0/CD)/(AUD+clast/k)×1000/60. C0: initial concentration in the incubation [μM], CD: cell density of vital cells [10e6cells/mL], AUD: area under the data [μM×h], clast: concentration of last data point [μM], k: slope of the regression line for parent decline [h−1].
The calculated in vitro hepatic intrinsic clearance can be scaled up to the intrinsic in vivo hepatic Clearance and used to predict hepatic in vivo blood clearance (CL) by the use of a liver model (well stirred model).
CL_[…]_INVIVO[ml/min/kg]=(CL_[…][μL/min/10e6cells]×hepatocellularity[10e6cells/g liver]×liver factor[g/kg bodyweight])/1000
CL[ml/min/kg]=CL_[…]_INVIVO[ml/min/kg]×hepatic blood flow[ml/min/kg]/(CL_[…]_INVIVO[ml/min/kg]+hepatic blood flow[ml/min/kg])
Hepatocellularity,mouse:120×10e6cells/g liver
Liver factor,mouse:55 g/kg bodyweight
Blood flow,mouse:90 ml/(min×kg)

The mark [7] stands for this setting: pair comparison without/with 4-fluoropiperidyl, read-out: Efflux ratio (BA/AB).

Structures are written as SMILES. Where two headings read alike, the source gives them in different places.

`Cn1cnnc1C1CCN(c2c(C#N)cc(C(F)(F)F)nc2-c2cnc3nn(C(C)(C)C)c(Cl)c3c2)CC1`: in data set [1] (setting [7]), the efflux ratio was determined as 36.4. The “CACO2 Perm.” value in data set [2] is 1.0 10^−6 cm/sec. Regarding `Cn1cnnc1C1(F)CCN(c2c(C#N)cc(C(F)(F)F)cc2-c2ccc(F)nc2)CC1` [Example 4 in EP 23161417.3], the “CACO2 Perm.” value in data set [2] is given as 40.5 10^−6 cm/sec. The same measure, in the same setting: then `Cn1cnnc1C1CCN(c2c(C#N)ccnc2-c2ccc(F)nc2)CC1` [Example 133 in WO 2024/020517], with 4.8 10^−6 cm/sec; and `Cn1cnnc1C1(F)CCN(c2c(-c3cnc4nn(C(C)(C)C)cc4c3)ccc(C(F)(F)F)c2C#N)CC1` [Example 30 in EP 23161417.3], with 1.7 10^−6 cm/sec; and `Cn1cnnc1C1(F)CCN(c2c(C#N)cccc2-c2cnc3nn(C(C)(C)C)cc3c2)CC1` [Example 62 in EP 22216126.7], with 4.9 10^−6 cm/sec.

For the compound `Cn1cnnc1C1(F)CCN(c2c(C#N)cccc2-c2ccc(F)nc2)CC1` [Example 56 in EP 23161417.3], the “CACO2 Perm.” value in data set [2] is given as 50.0 10^−6 cm/sec. Still for that read-out and setting: then `Cn1cnnc1C1(F)CCN(c2c(C#N)cccc2-c2ccnnc2)CC1` [Example 52 in EP 22216126.7], with 15.0 10^−6 cm/sec; and `Cn1cnnc1C1CCN(c2c(-c3ccc(F)nc3)ccnc2C#N)CC1` [Example 132 in WO 2024/020517], with 1.8 10^−6 cm/sec. As for `Cn1cncc1C1CCN(c2c(C#N)cccc2-c2ccc(F)nc2)CC1` [QP5038, reference compound], in data set [3], the “n-fold induction of CYP3A4 at 10 μM” value is 58.5 n-fold. Also, the IC50 in data set [4] turned out to be 0.006 µM; in data set [5], 0.021 µM. Moreover, the efflux ratio in data set [1] (Assay C, permeability B-A/permeability A-B, read-out: Efflux Ratio) is 0.8. Also, the Papp A→B in data set [1] (pH 7.2, Assay C, CACO-2 cells) was 610 nm/s. The “Mouse Hepatocyte Stability QH” value in data set [6] was found to be 97%. As for `Cn1cnnc1C1(F)CCN(c2c(C#N)ccnc2-c2ccc(F)nc2)CC1` [Example 1 in EP 22188580.9], in data set [2], the “CACO2 Perm.” value is 28.0 10^−6 cm/sec.

As for `Cn1cnnc1C1(F)CCN(c2c(-c3ccc(F)nc3)ccnc2C#N)CC1` [Example 10 in EP 22188580.9], in data set [2], the “CACO2 Perm.” value is on record as 11.0 10^−6 cm/sec. On to `Cn1cnnc1C1CCN(c2c(C#N)cccc2-c2ccnnc2)CC1` [Example 11 in WO 2024/020517], for which, in data set [1] (setting [7]), the efflux ratio turned out to be 28.1. Further, in data set [2], the “CACO2 Perm.” value is listed as 0.3 10^−6 cm/sec. The matching figures for `Cn1cnnc1C1(F)CCN(c2c(C#N)cc(C(F)(F)F)nc2-c2cnc3nn(C(C)(C)C)c(Cl)c3c2)CC1` [Example 3 in EP 23189886.7]: 1 and 47.0 10^−6 cm/sec. With `Cn1cnnc1C1(F)CCN(c2c(C#N)cc(F)cc2-c2cnc3nn(C(C)(C)C)c(C(F)(F)F)c3c2)CC1`, the efflux ratio in data set [1] (setting [7]) was determined as 0.8. Further, in data set [2], the “CACO2 Perm.” value is listed as 51.0 10^−6 cm/sec. In the case of `Cn1cnnc1C1CCN(c2c(-c3cnc4nn(C(C)(C)C)cc4c3)ccc(C(F)(F)F)c2C#N)CC1` [Example 32 in EP 23161417.3], in data set [2], the “CACO2 Perm.” value is 0.2 10^−6 cm/sec. On the same count and under the same terms, then `Cn1cnnc1C1(F)CCN(c2c(C#N)cc(F)cc2-c2ccc(F)nc2)CC1` [Example 6 in EP 23161417.3], with 44.0 10^−6 cm/sec. Turning to `Cn1cnnc1C1(F)CCN(c2c(C#N)cc(C(F)(F)F)nc2-c2cnc3nn(C(C)(C)C)c(C(F)(F)F)c3c2)CC1` [Example 4 in EP 23189886.7], in data set [1] (setting [7]), the efflux ratio is 0.6. In addition, the “CACO2 Perm.” value in data set [2] is listed as 99.5 10^−6 cm/sec. With `Cn1cnnc1C1CCN(c2c(C#N)cc(Cl)cc2-c2cnc3nn(C(C)(C)C)cc3c2)CC1` [Example 17 in EP 23161417.3], in data set [2], the “CACO2 Perm.” value was 2.5 10^−6 cm/sec. The same measure, in the same setting: then `Cn1cnnc1C1CCN(c2c(C#N)cccc2-c2cnc3nn(C(C)(C)C)cc3c2)CC1` [Example 50 in EP 22216126.7], with 0.5 10^−6 cm/sec; and `Cn1cnnc1C1CCN(c2c(C#N)cc(C(F)(F)F)cc2-c2ccc(F)nc2)CC1` [Example 70 in WO 2024/020517], with 9.0 10^−6 cm/sec. Turning to `Cn1cnnc1C1(F)CCN(c2c(C#N)cc(Cl)nc2-c2ccc(F)nc2)CC1` [Example 18 in EP 23161417.3], the efflux ratio in data set [1] (setting [7]) was 1. Besides, in data set [2], the “CACO2 Perm.” value is listed as 66.0 10^−6 cm/sec. Regarding `Cn1cnnc1C1CCN(c2c(C#N)cc(F)cc2-c2ccc(F)nc2)CC1` [Example 130 in WO 2024/020517], the “CACO2 Perm.” value in data set [2] is 24.0 10^−6 cm/sec. Regarding `Cn1cnnc1C1CCN(c2c(C#N)cc(F)cc2-c2cnc3nn(C(C)(C)C)c(C(F)(F)F)c3c2)CC1`, the efflux ratio in data set [1] (setting [7]) is 5.7. In data set [2], the “CACO2 Perm.” value was 17.0 10^−6 cm/sec. Turning to `Cn1cnnc1C1CCN(c2c(C#N)cc(Cl)nc2-c2ccc(F)nc2)CC1` [Example 18 in WO 2024/020517], the efflux ratio in data set [1] (setting [7]) was 3.3. The “CACO2 Perm.” value in data set [2] was 23.0 10^−6 cm/sec. As for `Cn1cnnc1C1(F)CCN(c2c(C#N)cc(Cl)cc2-c2cnc3nn(C(C)(C)C)cc3c2)CC1` [Example 19 in EP 23161417.3], in data set [2], the “CACO2 Perm.” value is recorded as 18.0 10^−6 cm/sec.

On to `Cn1cnnc1C1CCN(c2c(C#N)cc(C(F)(F)F)nc2-c2cnc3nn(C(C)(C)C)c(C(F)(F)F)c3c2)CC1` [Example 13 in EP 23189886.7], for which the efflux ratio in data set [1] (setting [7]) was found to be 5.7. For the same compound, the “CACO2 Perm.” value in data set [2] is 3.7 10^−6 cm/sec.

The IC50 is the point on the concentration scale where inhibition reaches its midpoint. As a reminder, the Papp A→B is how fast a substance crosses the layer from the apical side.
